Experiments:
[1] = tested on: MDA-MB-231 (triple-negative breast cancer); assay: Cytotoxic activity assay (MTT); assay type: cell-based, human; conditions: for IC50: Homo sapiens, MDA-MB-231, 48 h exposure, MTT, read-out: Cell lines, IC50 (μM) MDA-MB-231; for Selectivity Index (SI) values MDA-MB-231: SI = IC50 normal cell (MRC-5)/ IC50 cancer cell
Excerpt: (§1) The synthetic compounds were screened for their cytotoxic activity using standard MTT or XTT methods[30] against a panel of nine human cancer cell lines and one normal cell line, including MDA-MB-231 (triple-negative breast cancer), T-47D (hormone-dependent breast cancer), HepG2 (hepatocellular carcinoma), A549 (lung adenocarcinoma), H69AR (multidrug-resistant small cell lung carcinoma), HuCCA-1 (cholangiocarcinoma derived from a patient), HeLa (cervical carcinoma), and two leukemia cell lines, HL-60 (acute promyelocytic leukemia) and MOLT-3 (T cell acute lymphoblastic leukemia). MRC-5 normal embryonic lung fibroblast cell line was used to represent normal cells. Chemotherapeutic drugs, doxorubicin and etoposide, were used as positive controls.
(§2) The cells were seeded into 96-well plates (100 µL for adherent cells and 75 µL for suspended cells) at a density of 5000–20,000 cells per well, depending on their growth rates. Adherent and suspended cells were then allowed to grow at 37 °C with 95% humidity and 5% CO2 for 24 h and 30 min, respectively. The cytotoxicity assay was initiated by adding an equal volume of cell culture medium containing tested compound at predetermined concentrations. Following 48 h of exposure, cell viability was determined using MTT assay for adherent cells[51],[52]or XTT assay for suspeended cells. Briefly, for adherent cells, 100 µL of the MTT reagent was added to each well, and the microtiter plates were further incubated for 2.5–4 h. The medium was subsequently replaced with 100 µL of DMSO to dissolve the purple formazan before the absorbance at 550 nm was measured using a microplate reader (a SpectraMax Plus 384) with a reference wavelength of 650 nm. For suspended cells, 75 µL of the XTT reagent was added to each well, and the cells were further incubated for 4 h. Afterwards, the absorbance of orange formazan at 492 nm was measured with a reference wavelength of 690 nm using a microplate reader.

[2] = tested on: T-47D (hormone-dependent breast cancer); assay: Cytotoxic activity assay (MTT); assay type: cell-based, human; conditions: for IC50: Homo sapiens, T47D, 48 h exposure, MTT, read-out: Cell lines, IC50 (μM) T47-D; for Selectivity Index (SI) values T47-D: SI = IC50 normal cell (MRC-5)/ IC50 cancer cell
Excerpt: as §1, §2

[3] = tested on: A549 (lung adenocarcinoma); assay: Cytotoxic activity assay (MTT); assay type: cell-based, human; conditions: for IC50: Homo sapiens, A549, 48 h exposure, MTT, read-out: Cell lines, IC50 (μM) A549; for Selectivity Index (SI) values A549: SI = IC50 normal cell (MRC-5)/ IC50 cancer cell
Excerpt: as §1, §2

[4] = tested on: HeLa (cervical carcinoma); assay: Cytotoxic activity assay (MTT); assay type: cell-based, human; conditions: for IC50: Homo sapiens, 48 h exposure, MTT, read-out: Cell lines, IC50 (μM) HeLa; for Selectivity Index (SI) values HeLa: SI = IC50 normal cell (MRC-5)/ IC50 cancer cell
Excerpt: as §1, §2

[5] = tested on: HepG2 (hepatocellular carcinoma); assay: Cytotoxic activity assay (MTT); assay type: cell-based, human; conditions: for IC50: Homo sapiens, HepG2, 48 h exposure, MTT, read-out: Cell lines, IC50 (μM) HepG2; for Selectivity Index (SI) values HepG2: SI = IC50 normal cell (MRC-5)/ IC50 cancer cell
Excerpt: as §1, §2

[6] = tested on: H69AR (multidrug-resistant small cell lung carcinoma); assay: Cytotoxic activity assay (MTT); assay type: cell-based, human; conditions: for IC50: Homo sapiens, H69AR, 48 h exposure, MTT, read-out: Cell lines, IC50 (μM) H69AR; for Selectivity Index (SI) values H69AR: SI = IC50 normal cell (MRC-5)/ IC50 cancer cell
Excerpt: as §1, §2

[7] = tested on: HuCCA-1 (cholangiocarcinoma derived from a patient); assay: Cytotoxic activity assay (MTT); assay type: cell-based, human; conditions: for IC50: Homo sapiens, HuCC-A1, 48 h exposure, MTT, read-out: Cell lines, IC50 (μM) HuCCA-1; for Selectivity Index (SI) values HuCCA-1: SI = IC50 normal cell (MRC-5)/ IC50 cancer cell
Excerpt: as §1, §2

[8] = tested on: MRC-5 normal embryonic lung fibroblast cell line; assay: Cytotoxic activity assay (MTT), normal cells; assay type: cell-based; conditions: Homo sapiens, MRC5, 48 h exposure, read-out: Cell lines, IC50 (μM) MRC-5
Excerpt: as §1, §2

[9] = tested on: HL-60 (acute promyelocytic leukemia); assay: Cytotoxic activity assay (XTT); assay type: cell-based, human; conditions: for IC50: Homo sapiens, HL-60, 48 h exposure, XTT, read-out: Cell lines, IC50 (μM) HL-60; for Selectivity Index (SI) values HL-60: SI = IC50 normal cell (MRC-5)/ IC50 cancer cell
Excerpt: as §1, §2

[10] = tested on: MOLT-3 (T cell acute lymphoblastic leukemia); assay: Cytotoxic activity assay (XTT); assay type: cell-based, human; conditions: for IC50: Homo sapiens, MOLT-3, 48 h exposure, XTT, read-out: Cell lines, IC50 (μM) MOLT-3; for Selectivity Index (SI) values MOLT-3: SI = IC50 normal cell (MRC-5)/ IC50 cancer cell
Excerpt: as §1, §2

Row | SMILES | IC50 [1] [µM] | Selectivity Index (SI) values MDA-MB-231 [1] | IC50 [2] [µM] | Selectivity Index (SI) values T47-D [2] | IC50 [3] [µM] | Selectivity Index (SI) values A549 [3] | IC50 [4] [µM] | Selectivity Index (SI) values HeLa [4] | IC50 [5] [µM] | Selectivity Index (SI) values HepG2 [5] | IC50 [6] [µM] | Selectivity Index (SI) values H69AR [6] | IC50 [7] [µM] | Selectivity Index (SI) values HuCCA-1 [7] | IC50 [8] [µM] | IC50 [9] [µM] | Selectivity Index (SI) values HL-60 [9] | IC50 [10] [µM] | Selectivity Index (SI) values MOLT-3 [10]
1 | C=C1CC[C@H]2C(C)(C)CCC[C@]2(C)[C@H]1CC/C(C)=C/C(=O)NOC [Compound 4i, (E)-N-Methoxy-3-methyl-5-((1S,4aS,8aS)-5,5,8a-trimethyl-2-methylene-decahydronaphthalen-1-yl)pent-2-enamide] | 45 ± 0.86 | 1.2 | 41.3 ± 1.61 | 1.3 | 45.7 ± 0.63 | 1.2 | 53.8 ± 0.83 | 1.0 | 44.26 ± 0.4 | 1.2 | 96.91 ± 0.46 | 0.5 | 49.8 ± 0.18 | 1.1 | 52.68 ± 0.03 | 24.9 ± 0.45 | 2.1 | 21.4 ± 1.29 | 2.5
2 | C=C1CC[C@H]2C(C)(C)CCC[C@]2(C)[C@H]1CC/C(C)=C/C(=O)NO [Compound 4j, (E)-N-Hydroxy-3-methyl-5-((1S,4aS,8aS)-5,5,8a-trimethyl-2-methylene-decahydronaphthalen-1-yl)pent-2-enamide] | > 120 | 1.0 | > 120 | 1.0 | > 120 | 1.0 | > 120 | 1.0 | > 120 | 1.0 | > 120 | 1.0 | > 120 | 1.0 | > 120 | > 120 | 1.0 | > 120 | 1.0
3 | C=C1CC[C@H]2C(C)(C)CCC[C@]2(C)[C@H]1CC/C(C)=C/C(=O)NN [Compound 4k, (E)-3-Methyl-5-((1S,4aS,8aS)-5,5,8a-trimethyl-2-methylenedecahydro-naphthalen-1-yl)pent-2-enehydrazide] | 98.5 ± 3.01 | 1.5 | > 120 | 0.9 | > 120 | 0.9 | 118.78 ± 0.06 | 1.2 | > 120 | 0.9 | > 120 | 0.9 | 130 ± 2 | 1.1 | 145.8 ± 0.34 | 108 ± 1.53 | 1.4 | 29.3 ± 2.43 | 5.0
4 | C=C1CC[C@H]2C(C)(C)CCC[C@]2(C)[C@H]1CC/C(C)=C/C(=O)N(C)C [Compound 4m, (E)-N,N,3-Trimethyl-5-((1S,4aS,8aS)-5,5,8a-trimethyl-2-methylenedecahydro-naphthalen-1-yl)pent-2-enamide] | 32.1 ± 1.68 | 1.3 | 42.6 ± 1.08 | 1.0 | 51.82 ± 0.25 | 0.8 | 40.1 ± 0.68 | 1.0 | 52.1 ± 2.82 | 0.8 | 99.97 ± 0.74 | 0.4 | 44.31 ± 0.42 | 0.9 | 40.8 ± 0.56 | 19.4 ± 0.84 | 2.1 | 21.3 ± 0.47 | 1.9
5 | C=C1CC[C@H]2C(C)(C)CCC[C@]2(C)[C@H]1CC/C(C)=C/C(=O)N1CCCCC1 [Compound 4n, (E)-3-Methyl-1-(piperidin-1-yl)-5-((1S,4aS,8aS)-5,5,8a-trimethyl-2-methylenedecahydronaphthalen-1-yl)pent-2-en-1-one] | 33.9 ± 1.93 | 1.1 | 73 ± 3.31 | 0.5 | 41.7 ± 1.43 | 0.9 | 38.91 ± 0.13 | 1.0 | 32.2 ± 1.37 | 1.2 | 52.31 ± 0.42 | 0.7 | 41.25 ± 0.19 | 0.9 | 38.4 ± 1.2 | 20.5 ± 0.5 | 1.9 | 21 ± 0.32 | 1.8
6 | C=C1CC[C@H]2C(C)(C)CCC[C@]2(C)[C@H]1CC/C(C)=C/C(=O)N(C)OC [Compound 4o, (E)-N-Methoxy-N,3-dimethyl-5-((1S,4aS,8aS)-5,5,8a-trimethyl-2-methylene-decahydronaphthalen-1-yl)pent-2-enamide] | 38.8 ± 0.44 | 1.2 | 46.4 ± 1.73 | 1.0 | 82.4 ± 0.99 | 0.6 | 52.86 ± 0.02 | 0.9 | 57.3 ± 1.82 | 0.8 | 115.1 ± 0.64 | 0.4 | 54.3 ± 1.18 | 0.9 | 47.2 ± 0.96 | 27.9 ± 1.99 | 1.7 | 29.8 ± 1.89 | 1.6

From article PMC10439230 (Scientific Reports, 2023)
